From patent publication US20250289827A1, “MORPHIC FORMS OF A MUTANT BRAF DEGRADER AND METHODS OF MANUFACTURE THEREOF” (C4 THERAPEUTICS, INC., priority 2022, published 2025)
Converted amounts (≈) assume the structure as drawn.

Assays:
ERK phosphorylation = assay: Inhibition of ERK phosphorylation in A375 cells; type: cell-based; settings: Homo sapiens, A-375, 24 hr
BCS / DCS classification = settings: initial studies
Description: Initial studies indicate Compound 1 is a Biopharmaceutics Classification System (BCS) Class II and a Developability Classification System (DCS) Class IIb molecule.

[1] = Solubility in aqueous pH buffers and bio-relevant fluids at 37° C.; type: physicochemical; settings: for Solubility 2 h / Solubility 24 h: LOQ: 1.5 μg/mL; for solubility at 2 h / solubility at 24 h: thermodynamic from solid
Description: Solubility of the Form B and sodium salt Form F was measured in 7 aqueous pH buffers and bio-relevant fluids including pH 1.2 HCl solution (0.2N), pH 4.5 acetate buffer (50 mM), pH 6.8 phosphate buffer (50 mM), pH 2.0 SGF, pH 6.5 FaSSIF-v1, pH 5.0 FeSSIF-v1 and water at 37° C. for 2 h and 24 h, respectively.
Accurate 20 mg of the Form B was weighed into a 20 mL glass vial. Then, 10 mL of solubility medium was added. The sodium salt Form F amount used was equivalent to 20 mg anhydrous form. Obtained suspensions were stirred at 37° C. at 400 rpm and sampled at 2 hours and at 24 hours, respectively. The samples were centrifuged at 37° C. at 4,000 rpm for 4 min. Supernatants were analyzed by HPLC and pH meter for solubility and pH value, respectively. Residual solids (wet cakes) from the 24 hours samples were also characterized by XRPD to determine physical form.

[2] = Equilibration under a temperature cycle (XRPD); type: physicochemical
Description: The equilibration was executed with a stirring bar on a magnetic stirring plate at a rate of 300 rpm. The obtained suspensions were filtered through a 0.45 µm nylon membrane filter by centrifugation at 14,000 rpm. Solid parts (wet cakes) were investigated by XRPD.

[3] = Crystallization from hot saturated solutions by slow cooling; type: physicochemical; settings: for Result: slow cooling
Description: About 50 mg of Compound 1 Form A was dissolved in the minimal amount of selected solvents at 50° C. Obtained solutions were filtered through a 0.45 μm syringe membrane filter. […] Samples without precipitates at 5° C. were further cooled to −20° C. Precipitates were collected by centrifugation filtration through a 0.45 μm nylon membrane filter at 14,000 rpm. Solid parts (wet cakes) were investigated by XRPD.
Obtained solutions were filtered through a 0.45 μm syringe membrane filter. […] Obtained suspensions were cooled to 5° C. at 0.1° C./min and kept at 5° C. for about 12 h. Precipitates were collected by centrifugation filtration through a 0.45 μm nylon membrane filter at 14,000 rpm. Solid parts (wet cakes) were investigated by XRPD.

[4] = Crystallization by heat-cool DSC; type: physicochemical; settings: for Thermal events: Melting Tonset / Thermal events: enthalpy: heated to 185° C.; for Thermal events: Delta Cp / Thermal events: Tg: reheated to 250° C.
Description: Polymorphic behavior of Compound 1 Form A was investigated by two different heat-cool DSC cycles. A Tzero pan and a Tzero hermetic lid with a pin hole were used for this experiment. No new crystalline form was obtained by heat-cool DSC.

[5] = Salt screening by re-slurry; type: physicochemical
[6] = pH 4.5 acetate buffer (50 mM), 37° C.
[7] = pH 6.8 phosphate buffer (50 mM), 37° C.
[8] = simulated gastric fluid, SGF, pH 2.0, 37° C.
[9] = simulated gastric fluid, pH 1.2 HCl solution (0.2N), 37° C.
[10] = Acetone, temperature cycle 5° C. to 40° C.
[11] = Acetonitrile, temperature cycle 5° C. to 40° C.
[12] = DMF, temperature cycle 5° C. to 40° C.
[13] = Ethyl acetate, temperature cycle 5° C. to 40° C.
[14] = Isopropanol, temperature cycle 5° C. to 40° C.
[15] = Isopropyl acetate, temperature cycle 5° C. to 40° C.
[16] = Methanol, temperature cycle 5° C. to 40° C.
[17] = THF/heptane (v:v = 1:1), temperature cycle 5° C. to 40° C.
[18] = Toluene, temperature cycle 5° C. to 40° C.
[19] = temperature cycle, Acetone/water (v:v = 86:14) a.w. = 0.6
[20] = temperature cycle, Acetonitrile/water (v:v = 96:4) a.w. = 0.65
[21] = temperature cycle, DCM/methanol (v:v = 1:1)
[22] = temperature cycle, DMF/water (v:v = 30:70) a.w. = 0.9
[23] = temperature cycle, DMF/water (v:v = 73:27) a.w. = 0.6
[24] = temperature cycle, DMSO/water (v:v = 23:77) a.w. = 0.9
[25] = temperature cycle, DMSO/water (v:v = 57:43) a.w. = 0.6
[26] = temperature cycle, Methanol/water (v:v = 69:31) a.w. = 0.6
[27] = temperature cycle, THF/water (v:v = 82:18) a.w. = 0.9
[28] = temperature cycle, THF/water (v:v = 92:8) a.w. = 0.6
[29] = Cycle 1 (cooling at 20° C./min)

For `CCN(C)S(=O)(=O)Nc1ccc(F)c(Oc2ccc3ncn([C@H]4COC5(CCN(C(=O)CC6(O)CCN(c7cc8c(cc7F)c(N7CCC(=O)NC7=O)nn8C)CC6)CC5)C4)c(=O)c3c2)c1C#N` [Compound 1, (3R)-3-[6-[2-cyano-3-[[ethyl(methyl)sulfamoyl]amino]-6-fluorophenoxy]-4-oxoquinazolin-3-yl]-8-[2-[1-[3-(2,4-dioxo-1,3-diazinan-1-yl)-5-fluoro-1-methylindazol-6-yl]-4-hydroxypiperidin-4-yl]acetyl]-1-oxa-8-azaspiro[4.5]decane], the IC50 (ERK phosphorylation) was 11 nM, the “Biopharmaceutics Classification System (BCS) class” value (BCS / DCS classification) was “Class II” and the “Developability Classification System (DCS) class” value (BCS / DCS classification) was “Class IIb”.
With `CCN(C)S(=O)(=O)Nc1ccc(F)c(Oc2ccc3ncn([C@H]4COC5(CCN(C(=O)CC6(O)CCN(c7cc8c(cc7F)c(N7CCC(=O)NC7=O)nn8C)CC6)CC5)C4)c(=O)c3c2)c1C#N` [Compound 1 Form B] the “pH of supernatant 24 h” value ([1]; FaSSIF-v1, pH 6.5, 37° C.) was “pH = 6.5”, the “Solubility 2 h” value ([1]; FaSSIF-v1, pH 6.5, 37° C.) was “<LOQ” and the “Solubility 24 h” value ([1]; FaSSIF-v1, pH 6.5, 37° C.) was “<LOQ”. The “pH of supernatant 24 h” value ([1]; FeSSIF-v1, pH 5.0, 37° C.) was “(pH = 5.0)”, the “pH of supernatant 24 h” value ([1]; SGF, pH 2.0, 37° C.) was “(pH = 2.1)” and the “pH of supernatant 24 h” value ([1]; Water, 37° C.) was “(pH = 7.0)”. The “Solubility 2 h” value ([1]; Water, 37° C.) was “<LOQ”, the “pH range of morphic form stability in aqueous media” value ([1]; aqueous media) was 1.2 to 7.0 and the “pH dependence of solubility” value ([1]; aqueous media, 37° C.) was “pH dependent solubility”. For the same compound, the “pH of supernatant 24 h” value ([1]; pH 1.2 HCl solution (0.2N), 37° C.) was “(pH = 0.9)”, the “pH of supernatant 24 h” value [1, 6] was “(pH = 4.5)” and the “Solubility 2 h” value [1, 6] was “<LOQ”. The “Solubility 24 h” value [1, 6] was “<LOQ”, the “pH of supernatant 24 h” value [1, 7] was “(pH = 6.8)” and the “Solubility 2 h” value [1, 7] was “<LOQ”. The “Solubility 24 h” value [1, 7] was “<LOQ”, the “Form change after solubility test” value ([1]; residual solids, 24 hours, XRPD) was “no form change” and the solubility at 2 h [1, 8] was 3.8 µg/mL (≈ 3.97 µM). The solubility at 24 h [1, 8] was 5.2 µg/mL (≈ 5.43 µM), the solubility at 2 h [1, 9] was 11.7 µg/mL (≈ 12.2 µM) and the solubility at 24 h [1, 9] was 28 µg/mL (≈ 29.2 µM). It also gave a solubility at 2 h ([1]; FeSSIF-v1, pH 5.0, 37° C.) of 4.8 µg/mL (≈ 5.01 µM), a solubility at 24 h ([1]; FeSSIF-v1, pH 5.0, 37° C.) of 6.7 µg/mL (≈ 6.99 µM) and a solubility at 24 h ([1]; Water, 37° C.) of 4.6 µg/mL (≈ 4.8 µM).
For `CCN(C)S(=O)(=O)Nc1ccc(F)c(Oc2ccc3ncn([C@H]4COC5(CCN(C(=O)CC6(O)CCN(c7cc8c(cc7F)c(N7CCC(=O)NC7=O)nn8C)CC6)CC5)C4)c(=O)c3c2)c1C#N` [Compound 1 Form A], the Comments ([2]; 1,4-Dioxane/heptane (v:v = 1:1), temperature cycle 5° C. to 40° C.) was “Sticky material”, the “XRPD (solid form after equilibration)” value ([2]; 2-MeTHF, temperature cycle 5° C. to 40° C., about 20 cycles) was “Form C (about 20” and the Comments ([2]; 2-MeTHF, temperature cycle 5° C. to 40° C., after about 8 more cycles) was “Form C converted”. The Comments [2, 10] was “Low crystallinity”, the “XRPD (solid form after equilibration)” value [2, 10] was “Form B” and the “Comments (crystallinity)” value [2, 11] was “Medium”. The “XRPD (solid form after equilibration)” value [2, 11] was “Form B”, the Comments ([2]; DCM/heptane (v:v = 1:1), temperature cycle 5° C. to 40° C.) was “Sticky material” and the Comments [2, 12] was “Clear solution”. The “Comments: concentration of clear solution” value (“Comments: concentration” for short) [2, 12] was “(About 500 mg/mL)”, the “XRPD (solid form after equilibration)” value ([2]; Ethanol, temperature cycle 5° C. to 40° C.) was “Almost amorphous” and the Comments [2, 13] was “Low crystallinity”. For the same compound, the “XRPD (solid form after equilibration)” value [2, 13] was “Form B”, the Comments [2, 14] was “Low crystallinity” and the “XRPD (solid form after equilibration)” value [2, 14] was “Form A”. For the same compound, the Comments [2, 15] was “Low crystallinity”, the “XRPD (solid form after equilibration)” value [2, 15] was “Form A” and the “XRPD (solid form after equilibration)” value ([2]; MTBE, temperature cycle 5° C. to 40° C.) was “Almost amorphous”. For the same compound, the Comments [2, 16] was “Low crystallinity”, the “XRPD (solid form after equilibration)” value [2, 16] was “Form B” and the “XRPD (solid form after equilibration)” value ([2]; Methyl ethyl ketone, temperature cycle 5° C. to 40° C.) was “Almost amorphous”. The Comments [2, 17] was “Low crystallinity”, the “XRPD (solid form after equilibration)” value [2, 17] was “Form B” and the Comments [2, 18] was “Low crystallinity”. The “XRPD (solid form after equilibration)” value [2, 18] was “Form A”, the Comments ([2]; temperature cycle, Acetone/water (v:v = 36:64) a.w. = 0.9) was “Sticky material” and the Comments [2, 19] was “Clear solution”. The “Comments: concentration” value [2, 19] was “(About 500 mg/mL)”, the Comments ([2]; temperature cycle, Acetonitrile/water (v:v = 42:58) a.w. = 0.9) was “Sticky material” and the Comments [2, 20] was “Medium crystallinity”. For the same compound, the XRPD [2, 20] was “Form B**”, the Comments [2, 21] was “Clear solution” and the “Comments: concentration” value [2, 21] was “(About 500 mg/mL)”. For the same compound, the Comments [2, 22] was “Low crystallinity”, the XRPD [2, 22] was “Form B” and the Comments [2, 23] was “Medium crystallinity”. For the same compound, the XRPD [2, 23] was “Form B”, the Comments [2, 24] was “Low crystallinity” and the XRPD [2, 24] was “Form A”. The Comments [2, 25] was “Low crystallinity”, the XRPD [2, 25] was “Form A” and the Comments [2, 26] was “Low crystallinity”. The XRPD [2, 26] was “Form B”, the Comments [2, 27] was “Clear solution” and the “Comments: concentration” value [2, 27] was “(About 500 mg/mL)”. For the same compound, the Comments [2, 28] was “Clear solution”, the “Comments: concentration” value [2, 28] was “(About 500 mg/mL)” and the XRPD ([3]; slow cooling with Form B seeds, Acetone) was “Form B”. For the same compound, the Result ([3]; Acetone/water (v:v = 1:1)) was “Sticky material”, the Result ([3]; Acetone, placed at −20° C. for 11 days) was “for 11 days: clear solution” and the Result ([3]; Acetonitrile/water (v:v = 1:1), placed at −20° C. for 11 days) was “for 11 days: clear solution”. The Result ([3]; Acetonitrile, placed at −20° C. for 11 days) was “for 11 days: clear solution”, the Result ([3]; DCM) was “Sticky material” and the Result ([3]; Ethanol, placed at −20° C. for 10 days) was “for 10 days: few solids”. For the same compound, the Result ([3]; Ethyl acetate, placed at −20° C. for 11 days) was “for 11 days: clear solution”, the Result ([3]; Methyl ethyl ketone, placed at −20° C. for 11 days) was “for 11 days: clear solution” and the Result ([3]; THF) was “Oil material”. For the same compound, the Result ([3]; THF/water (v:v = 1:1), placed at −20° C. for 11 days) was “for 11 days: clear solution”, the “Thermal events: Melting Tonset” value [4, 29] was “Tonset 167.7° C., enthalpy about” and the “Thermal events: enthalpy” value [4, 29] was about 16 J/g. For the same compound, the “Thermal events: Delta Cp” value [4, 29] was “Delta Cp 0.3 J(g. ° C.)”, the “Thermal events: Tg” value [4, 29] was “Heated to 250° C.: Tg 149.8° C.,” and the “Thermal events: Melting Tonset” value ([4]; Cycle 2 (cooling at 2° C./min)) was “Tonset 167.7° C., enthalpy about”. The “Thermal events: enthalpy” value ([4]; Cycle 2 (cooling at 2° C./min)) was about 17 J/g, the “Thermal events: Delta Cp” value ([4]; Cycle 2 (cooling at 2° C./min)) was “Delta Cp 0.2 J(g. ° C.)” and the “Thermal events: Tg” value ([4]; Cycle 2 (cooling at 2° C./min)) was “Heated to 250° C.: Tg 145.9° C.,”. For the same compound, the Re-slurry result ([5]; Ca(OH)2, Ethyl Acetate) was “Almost amorphous”, the Re-slurry result ([5]; Choline, Ethyl Acetate) was “Sticky material” and the Re-slurry result ([5]; Choline, MTBE) was “Sticky material”. The Re-slurry result ([5]; Choline, Toluene) was “Sticky material” and the Re-slurry result ([5]; Methylglucamine, Ethyl Acetate) was “Form A”.
